Data taken from PubChem BioAssay (NCI).
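Briefly, cells in 96-well plates were exposed to five compound concentrations for 48 h, and endpoints were estimated by linear interpolation. TGI: total growth inhibition.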

Tests used:
Test in all cases: NCI anticancer screen, dose series, 48 h
XF 498 CNS = tested on: XF 498 CNS
DMS 273 small cell lung = tested on: DMS 273 small cell lung
HOP-18 NSCLC = tested on: HOP-18 NSCLC
M19-MEL melanoma = tested on: M19-MEL melanoma
SN12K1 renal = tested on: SN12K1 renal
SNB-78 CNS = tested on: SNB-78 CNS
LXFL 529 NSCLC = tested on: LXFL 529 NSCLC
DMS 114 small cell lung = tested on: DMS 114 small cell lung

Compound	TGI (XF 498 CNS)	TGI (DMS 273 small cell lung)	TGI (HOP-18 NSCLC)	TGI (M19-MEL melanoma)	TGI (SN12K1 renal)	TGI (SNB-78 CNS)	TGI (LXFL 529 NSCLC)	TGI (DMS 114 small cell lung)
O=C(CCN1CCOCC1)C(=Cc1ccccc1)C(=O)CCN1CCOCC1	12.8 µM	26 µM	30.6 µM	7.64 µM	5.68 µM	8.5 µM	–	–
COC(=O)C1=C(C)N2CCOC2CC1c1ccccc1 (centres undefined)	–	–	–	> 100 µM	–	–	> 100 µM	> 100 µM
CC(=O)NNc1nc(C)c(C(=O)NNC(=O)C(=O)Nc2c(C)cccc2C(C)(C)C)s1	> 100 µM	> 100 µM	–	> 100 µM	–	> 100 µM	> 100 µM	–
